This is an account of results in patent US7342004B2, “Thioether sulphamate steroids as steroid inhibitors and anti-cancer compounds” (Sterix Ltd., priority 2000, dated 2008).

The first experiment has as its target CuZnSOD (UniProt P00442). The experiment is described as follows: Superoxide dismutase (SOD) spectrophotometric XTT assay, Protocol 1. The format is biochemical. Conditions: read-out: IC 50/μM (+/− SEM) SOD Inhibition, xanthine oxidase/XTT, 24° C., 30 minutes.
Method: In this reaction, 3′-{1-[(phenylamino)-carbonyl]-3,4-tetrazolium}-bis(4-methoxy-6-nitro)benzenesulfonic acid hydrate (XTT) is converted to a colourimetric product by the action of superoxide ions (produced by xanthine oxidase (XO) and xanthine). Production of superoxide ions is inhibited by SOD resulting in decreased product. The ability of test compounds to inhibit SOD is measured by their ability to restore production of the coloured product. Reactions were performed in a total volume of 0.1 ml of buffer A (42 mM Na2CO3 (pH 9.4), 0.1 mM xanthine (Sigma), 0.1 mM EDTA, 0.026 mM XTT (Sigma)).
The reaction was incubated at 24° C. for 30 minutes and products determined by measuring absorobance at 470 nm. All determinations were made in duplicate/triplicate.
SOD activity was measured in accordance with Protocol 1.
Initial analyses were performed using test compounds at 100 μM.
In the case of `COc1cc2c(cc1O)CCC1C2CCC2(C)C1CCC2(O)Cc1ccccc1` (stereo not drawn) [Compound 13, 2-methoxy-17α-benzyl-estradiol], the IC50 was determined as 88 µM.

Consider `COc1cc2c(cc1O)CCC1C2CCC2(C)C1CCC2(O)Cc1ccc(C(C)(C)C)cc1` (stereo not drawn) [Compound 23, 2-methoxy-17α-(4-tert-butylbenzyl)oestradiol], for which the IC50 is greater than 100 µM.

The experiment is the same for the next values; noted with them: xanthine oxidase/XTT, 24° C., 30 minutes, read-out: IC 50/μM (+/− SEM) SOD Inhibition.
With `CSc1cc2c(cc1O)CCC1C2CCC2(C)C(O)CCC12` (stereo not shown) [Compound 1, 2-methylsulfanylestradiol], the IC50 came out at 10 µM.

In the case of `CCOc1cc2c(cc1O)CCC1C2CCC2(C)C(O)CCC12` (stereo not shown) [Compound 2, 2-ethoxyestradiol], the IC50 amounted to 11 µM.

On to `COc1cc2c(cc1O)CCC1C2CCC2(C)C(O)CCC12` (stereo not drawn) [Compound 3, 2-methoxy-17β-estradiol, reference compound], for which the IC50 was found to be 12 µM.

With `COc1cc2c(cc1O)CCC1C2CCC2(C)C(O)CCC12` (stereo not drawn) [Compound 4, 2-methoxy-17α-estradiol], the IC50 is 13 µM.

As to `COc1cc2c(cc1O)CCC1C2CCC2(C)C(=O)CCC12` (stereo not shown) [Compound 5, 2-methoxyestrone, reference compound], the IC50 was determined as 14 µM.

Turning to `CCSc1cc2c(cc1O)CCC1C2CCC2(C)C(O)CCC12` (stereo not shown) [Compound 6, 2-ethylsulfanylestradiol], the IC50 came to 14 µM.

For `CCOc1cc2c(cc1O)CCC1C2CCC2(C)C(=O)CCC12` (stereo not shown) [Compound 7, 2-ethoxyestrone], the IC50 amounted to 19 µM.

In the case of `COc1cc2c(cc1N)CCC1C2CCC2(C)C(=O)CCC12` (stereo not shown) [Compound 9, 2-methoxy-3-aminoestrone], the IC50 turned out to be 79 µM.

With `CC12CCC3c4cc(F)c(O)cc4CCC3C1CCC2=O` (stereo not shown) [Compound 11, 2-fluoroestrone], the IC50 stood at 81 µM.

`CC12CCC3c4cc(Cl)c(O)cc4CCC3C1CCC2=O` (stereo not shown) [Compound 12, 2-chloroestrone]: the IC50 is 83 µM.

Regarding `COc1cc2c3c(c(=O)oc2cc1O)CCCCC3` [Compound 14, 3-Hydroxy-2-methoxy-6-oxo-8,9,10,11-tetrahydro-7H-cyclohepta-[c][1]benzopyran], the IC50 amounted to 91 µM.

In the case of `C=CCc1cc2c(cc1O)CCC1C2CCC2(C)C(=O)CCC12` (stereo not shown) [Compound 15, 2-allylestrone], the IC50 is greater than 100 µM.

Consider `CC12CCC3c4cc(I)c(O)cc4CCC3C1CCC2=O` (stereo not shown) [Compound 16, 2-iodoestrone], for which the IC50 is greater than 100 µM.

Consider `CC12CCC3c4cc(C(F)F)c(O)cc4CCC3C1CCC2=O` (stereo not shown) [Compound 17, 2-difluoromethylestrone], for which the IC50 was greater than 100 µM.

`C[S+]([O-])c1cc2c(cc1O)CCC1C2CCC2(C)C(=O)CCC12` (stereo not shown) [Compound 18, 2-methylsulfoxyestrone]: the IC50 is greater than 100 µM.

Regarding `CC12CCC3c4cc(S(C)(=O)=O)c(O)cc4CCC3C1CCC2=O` (stereo not shown) [Compound 19, 2-methylsulfonylestrone], the IC50 was greater than 100 µM.

As to `CC12CCC3c4cc([N+](=O)[O-])c(O)cc4CCC3C1CCC2=O` (stereo not shown) [Compound 20, 2-nitroestrone], the IC50 was greater than 100 µM.

As for `CCc1cc2c(cc1O)CCC1C2CCC2(C)C(=O)CCC12` (stereo not shown) [Compound 21, 2-ethylestrone], the IC50 is greater than 100 µM.

On to `COc1cc2c(c([N+](=O)[O-])c1O)CCC1C2CCC2(C)C(=O)CCC12` (stereo not shown) [Compound 22, 2-methoxy-4-nitroestrone], for which the IC50 is greater than 100 µM.

With `CCc1cc2c(cc1OS(N)(=O)=O)CCC1C2CCC2(C)C(=O)CCC12` (stereo not shown) [Compound 26, 2-ethylestrone-3-O-sulphamate], the IC50 was greater than 100 µM.

Consider `CC12CCC3C(=CCc4cc(OS(N)(=O)=O)ccc43)C1CCC2=O` (stereo not shown) [Compound 27, equilin-3-O-sulphamate], for which the IC50 is greater than 100 µM.

In the case of `CSc1cc2c(cc1O)CCC1C2CC[C@]2(C)CCCC12` (stereo partly shown) [Compound 28, 2-methylsulfanyl-17-deoxyoestrone], the IC50 was greater than 100 µM.

As for `COc1cc2c(cc1O)CCC1C2CC[C@]2(C)CCCC12` (stereo partly shown) [Compound 29, 2-methoxy-17-deoxyoestrone], the IC50 is greater than 100 µM.
